{
  "source": "ChEMBL document CHEMBL5620372",
  "about": "“Pharmacological inhibition of ferroptosis as a therapeutic target for sepsis-associated organ damage” (Eur J Med Chem, 2023)",
  "key": {"[1]": {"assay": "Oral bioavailability in human", "format": "ADME, organism-based", "conditions": "in vivo"}, "[2]": {"assay": "Half life in human plasma", "format": "ADME, cell-free"}, "[3]": {"assay": "Oral bioavailability in human at 2 mg/kg", "format": "ADME, organism-based", "conditions": "in vivo"}, "[4]": {"assay": "Cmax in human plasma", "format": "ADME, cell-free"}, "[5]": {"assay": "Drug recovery in rat feces at 10 mg/kg, IG measured after 36 hrs", "format": "ADME, organism-based", "conditions": "faeces, po, read-out: Drug recovery"}, "[6]": {"assay": "Drug recovery in rat urine at 10 mg/kg, IG measured after 36 hrs", "format": "ADME, organism-based", "conditions": "po, read-out: Drug recovery"}},
  "data": [
    {"compound": "CC(=O)Nc1ccc(O)cc1", "note": "[ACETAMINOPHEN]", "values": [
      {"measurement": "bioavailability", "setting": "[1]", "result": 86, "unit": "%"},
      {"measurement": "half-life", "setting": "[2]", "result": 12, "unit": "min"}
    ]},
    {"compound": "O=c1c(-c2ccc(O)cc2)coc2c([C@@H]3O[C@H](CO)[C@@H](O)[C@H](O)[C@H]3O)c(O)ccc12", "note": "[PUERARIN]", "values": [
      {"measurement": "bioavailability", "setting": "[3]", "result": 7, "unit": "%"},
      {"measurement": "Cmax", "setting": "[4]", "result": 140, "unit": "ng/mL"}
    ]},
    {"compound": "Oc1ccc(/C=C/c2cc(O)cc(O)c2)cc1", "note": "[RESVERATROL]", "values": [
      {"measurement": "dose excreted at 36 h", "setting": "[5]", "result": 0.07, "unit": "%"},
      {"measurement": "dose excreted at 36 h", "setting": "[6]", "result": 0.15, "unit": "%"}
    ]}
  ]
}
